# From US20180050055A1, “Exploiting nutrient deprivation for modulation of glycosylation - research diagnostic, therapeutic, and biotechnology applications” (priority 2016, published 2018)
# Tests used:
# Type in all cases: cell-based, Human
# [1] = tested on: HB4A; assay: Quantification of CMP-Neu5Ac, UDP-GlcNAc, surface Neu5Ac and surface Neu5Gc (HPLC)
# Experimental: (§1) Protocol for nutrient deprivation of cells in suspension: Step 1, cell cultures were harvested as described above. Step 2, cells were resuspended in serum-free RPMI-1640 medium and pelleted by centrifugation at 900×g for 5 min; during this step cells experience 10 min of nutrient deprivation in serum-free media without Neu5Ac. Step 3, the cells were rinsed twice in 37° C. PBS by centrifugation for 5 min and 1 mL aliquots of 1×10^4 cells were pipetted gently into 15 mL BD Falcon tubes; during this step the cells experience an additional 20 min of nutrient-deprivation. Step 3, cell suspension aliquots corresponding to […] were equilibrated in tubes containing Neu5Ac-PBS buffer by placing the tubes with opened caps for 60 min in a humidified incubator at 37° C. and 5% CO2 with continuous shaking at 30 strokes per minute; during this Neu5Ac-supplementation step, negative controls were maintained in non-supplemented PBS. Step 4, the Neu5Ac-PBS solution was decanted, the tubes were gently tapped to loosen the gravity-pelleted cells, and then rinsed twice in warm (37° C.) PBS followed by pelleting by 5 min of centrifugation each time, this process provided an additional 30 min of nutrient-deprivation in the absence of supplemental Neu5Ac. The entire 5 step process results in 2 h of nutrient deprivation, after which the cells were analyzed by the methods listed below with the exception of the wound healing assays and lectin staining which used cells that were nutrient-deprived under adherent conditions. Protocol for nutrient deprivation of adherent cells. Step 1, cells were cultured on sterile glass microscope cover slips for two days. Step 2, the cover slips were placed in a sterile plastic rack in warm (37° C.) PBS buffer for 30 min, then the PBS was replaced with Neu5Ac-PBS solution for 60 min to provide Neu5Ac supplementation (controls were maintained in non-supplemented PBS), and then the cell-laden cover slips were placed back in PBS buffer for 30 min. All incubations were performed in a humidified incubator at 37° C. and 5% CO2 with continuous shaking at 30 strokes per minute. Overall this process mimics the non-adherent treatment conditions with respect to the duration of nutrient-deprivation (2 h total) and Neu5Ac supplementation (60 min).
# (§2) Cells were split and cultured (before feeding experiments) in RPMI1640 medium supplemented with 1% heat-inactivated human serum (RPMI/HUS) instead of FBS, resulting in chase-out of existing Neu5Gc. Subsequently, cells were fed with 10 mM Neu5Gc in RPMI/HUS medium or under nutrient deprived conditions as described above.
# (§3) PBS-washed cells (1 Million) (untreated or Neu5Ac treated) were lysed by hypotonic shock in 1 mL water (15 min, 4° C.). The intracellular cytidine-5′-monophospho-N-acetylneuraminic acid (CMP-Neu5Ac) and uridine-5′-diphospho-N-acetyl-D-glucosamine (UDP-GlcNAc) were purified from the cell lysates and analyzed by ion-pair reversed-phase high performance liquid chromatography (IP RP HPLC) using a ODS column as described. Cell membrane-bound Neu5Ac (from untreated and Neu5Ac treated) and Neu5Gc (from untreated and Neu5Gc treated) were determined by acid hydrolysis followed by derivatization with 1,2-diamino-4,5-methylenedioxybenze (DMB) and HPLC separation as previously described. The content of CAMP-Neu5Ac, UDP-GlcNAc, surface Neu5Ac, and surface Neu5Gc was shown in nano mole per mg cell protein from five independent experiments.
# (§4) Table-1: Quantification of nucleotide sugars, surface Nec5Ac, UDP-GlcNAc, Neu5Gc: Cells were treated in the presence and absence of 10 mM Nue5Ac for 2 h under nutrient deprivation and quantity of CMP-Neu5Ac (A), surface Neu5Ac (B), and UDP-GlcNAc (C) were determined. D. For quantification of surface Neu5Gc cells were treated with 10 mM Neu5Gc for 2 hrs under nutrient deprivation. The content of CMP-Neu5Ac, UDP-GlcNAc and Neu5Gc was shown in nano mole per mg cell protein from 5 independent experiments.
# [2] = tested on: MCF10A; assay: as above
# Experimental: as §1, §2, §3, §4
# [3] = tested on: MCF7; assay: as above
# Experimental: as §1, §2, §3, §4
# [4] = tested on: MDA MB231; assay: as above
# Experimental: as §1, §2, §3, §4
# [5] = tested on: T47D; assay: as above
# Experimental: as §1, §2, §3, §4
# [6] = tested on: cancer cells T47D, MCF7, MDA MB231; assay: Membrane glycosylation of cancer cells compared to normal control cells (Table 1 summary); details: 10 mM, all the cancer cells compared to control normal cells
# Experimental: as §3
# Human normal mammary epithelial cell lines MCF10A and HB4A and breast cancer cell lines T47D, MCF7 and MDA MB231 (American Type Culture Collection, USA) used in the study were cultured and treated according to the methods described earlier. Cells were nutritionally deprived using different time points followed by the sialic acid supplementation according to the method described earlier. […] The data were in strong agreement with the immunoblot data which were derived by assessing different enzymes responsible for glycosylation. […]
# [7] = tested on: MDA MB231 cells; assay: Microarray of genes upregulated after sialic acid treatment under nutrient deprivation
# Experimental: The membrane glycosylation of the cancer cells is synchronized by the alteration of gene expression. The microarray was performed aiming to identify the genes that had undergone changes induced by the enriched sugar environment. […] Inventors examined the status of the expression of those genes at both transcriptional and translational level, in another word, at mRNA and protein level by performing the quantitative real time polymerase chain reaction (qRT-PCR) and immunoblot. Remarkably, qRT-PCR and Western blot are 2 techniques that are used to quantify the expression of mRNA and protein. Data of qRT-PCR and Western blot were in strong agreement with the microarray data indicating a clear link between the expression of those genes and glycosylation of cell membrane domain. This patent aims to pursue the cancer cell management by targeting those genes at mRNA and protein level. Small interference RNA (siRNA) and small hairpin RNA (shRNA) will be designed to knockdown the mRNA. Similarly, the functions of the genes at protein level will be inhibited or disrupted by using antibody, small peptide, pharmaceutical blocker, and targeted toxin. Regression of cancer cells will be verified following transcriptional and translational manipulation.
# [8] = tested on: cancer and normal control cells; assay: TUNEL assay flow cytometry of apoptosis after sialic acid treatment
# Experimental: For this purpose, cells were fixed by suspending them in 70% (v/v) ethanol and stored at 4° C. for 15 min, washed twice with cold PBS, and then placed in 96-well plates (1×10^4 cells per well). The cells were then stained with the fluorescein isothiocyanate-labeled lectins (SWGA, WGA, SNA and MAL-1). For the comparison of mean fluorescence intensities, the instrument settings for fluorescence and compensation were the same for all experiments. Data were collected from at least 10,000 cells for each sample. For TUNEL assay, cells were incubated with DNA-labeling solution (10 μL reaction buffer, 0.75 μL TdT enzyme, 8 μL BrdUTP, 31.25 μL of dH2O) for 1 h at 25° C. Each sample was then exposed to an antibody solution consisting of 5 μL Alexa Fluor 488 labeled anti-BrdU antibody with 95 μL rinse solution and allowed to react for 20 min.
# FIG. 6: Optimization of conditions for nutrient deprivation and rescue via sialic acid supplementation. […] Data are the representative of five independent experiments.
# [9] = treated with 10 mM Neu5Gc for 2 hrs under nutrient deprivation
# [10] = treated with 10 mM Neu5Ac for 2 h under nutrient deprivation
# [11] = MCF7, treated with 10 mM Neu5Ac for 2 h under nutrient deprivation
# [12] = MDA MB231, treated with 10 mM Neu5Ac for 2 h under nutrient deprivation
# [13] = 10 mM sialic acid under nutrient deprivation relative to the untreated control
smiles,measurement,setting,value
"O=C(CO)N[C@H]1[C@H]([C@H](O)[C@H](O)CO)OC(O)(C(=O)O)C[C@@H]1O (some centres unmarked) [Neu5Gc, N-glycolylneuraminic acid]",surface Neu5Gc,[1]; [9],0.182 ± 0.73 nano mole per mg cell protein
same,surface Neu5Gc,[2]; [9],0.177 ± 0.31 nano mole per mg cell protein
same,surface Neu5Gc,"[3]; MCF7, treated with 10 mM Neu5Gc for 2 hrs under nutrient deprivation",1.58 ± 0.912 nano mole per mg cell protein
same,surface Neu5Gc,"[4]; MDA MB231, treated with 10 mM Neu5Gc for 2 hrs under nutrient deprivation",1.79 ± 0.982 nano mole per mg cell protein
same,surface Neu5Gc,[5]; [9],0.608 ± 0.675 nano mole per mg cell protein
same,glycosylation of membrane,[6],upregulated the glycosylation significantly
"CC(=O)N[C@H]1[C@H]([C@H](O)[C@H](O)CO)OC(O)(C(=O)O)C[C@@H]1O (some centres unmarked) [Neu5Ac, N-acetyl-5-neuraminic acid]",CMP-Neu5Ac,[1]; [10],0.51 ± 1.33 nano mole per mg cell protein
same,UDP-GlcNAc,[1]; [10],5.32 ± 7.41 nano mole per mg cell protein
same,surface Neu5Ac,[1]; [10],1.83 ± 2.09
same,CMP-Neu5Ac,[2]; [10],0.45 ± 1.92 nano mole per mg cell protein
same,UDP-GlcNAc,[2]; [10],5.18 ± 2.52 nano mole per mg cell protein
same,surface Neu5Ac,[2]; [10],1.81 ± 2.15
same,CMP-Neu5Ac,[3]; [11],2.253 ± 1.77 nano mole per mg cell protein
same,UDP-GlcNAc,[3]; [11],12.40 ± 3.66 nano mole per mg cell protein
same,surface Neu5Ac,[3]; [11],7.05 ± 3.95
same,CMP-Neu5Ac,[4]; [12],2.496 ± 2.63 nano mole per mg cell protein
same,UDP-GlcNAc,[4]; [12],12.53 ± 4.2 nano mole per mg cell protein
same,surface Neu5Ac,[4]; [12],7.12 ± 4.91
same,CMP-Neu5Ac,[5]; [10],1.06 ± 1.42 nano mole per mg cell protein
same,UDP-GlcNAc,[5]; [10],6.513 ± 5.3 nano mole per mg cell protein
same,surface Neu5Ac,[5]; [10],5.07 ± 4.56
same,"Log2 Ratio, CHI3L2",[7]; [13],2.68
same,"Log2 Ratio, EQTN",[7]; [13],3.078
same,"Log2 Ratio, OSMR",[7]; [13],2.215
same,"Log2 Ratio, PCMTD1",[7]; [13],2.118
same,"Log2 Ratio, PHLDA1",[7]; [13],2.626
same,"Log2 Ratio, RICTOR",[7]; [13],2.334
same,"Log2 Ratio, RSRP1",[7]; [13],2.33
same,"Log2 Ratio, RUNX2",[7]; [13],2.21
same,"Log2 Ratio, SCG2",[7]; [13],2.171
same,"Log2 Ratio, SEC24D",[7]; [13],2.199
same,expression of 10 particular genes in sialic acid treated cancer cells,[7]; compared to normal control cells,more than 5 folds
same,apoptosis,"[8]; 180 minutes, both cell types, cancer and normal control cells",significant apoptosis
same,apoptosis,"[8]; 240 minutes, both cell types, cancer and normal control cells",significant apoptosis
same,apoptosis,"[8]; cells treated for 120 minutes, 10 mM sialic acid, nutrient deprived condition",no apoptosis
